Experimental data published in ChEMBL document CHEMBL5050844 (2019).

How the values were obtained:
[1] = Induction of anti-CD3/CD28 antibodies-stimulated human T cell activation at 1 uM assessed fold increase in CD25 expression measured by ELISA assay; assay type: functional, T cell line
[2] = Induction of anti-CD3 antibodies-stimulated human T cell activation at 1 uM assessed fold increase in CD25 expression measured by ELISA assay; assay type: functional, T cell line; further: reference of the scale not given here
[3] = molecular target: E3 ubiquitin-protein ligase CBL-B (Homo sapiens, UniProt Q13191); experiment: Inhibition of N-terminal Avi-tagged human CBL-B (36 to 427 residues) incubated with 60 nM Src kinase for 1.5 hrs followed by incubation with fluorescently labeled UbcH5B-Ub for 1 hr and measured by TR-FRET assay; assay type: single protein
Sequence of E3 ubiquitin-protein ligase CBL-B (Q13191 whole entry, the tested form may be a part): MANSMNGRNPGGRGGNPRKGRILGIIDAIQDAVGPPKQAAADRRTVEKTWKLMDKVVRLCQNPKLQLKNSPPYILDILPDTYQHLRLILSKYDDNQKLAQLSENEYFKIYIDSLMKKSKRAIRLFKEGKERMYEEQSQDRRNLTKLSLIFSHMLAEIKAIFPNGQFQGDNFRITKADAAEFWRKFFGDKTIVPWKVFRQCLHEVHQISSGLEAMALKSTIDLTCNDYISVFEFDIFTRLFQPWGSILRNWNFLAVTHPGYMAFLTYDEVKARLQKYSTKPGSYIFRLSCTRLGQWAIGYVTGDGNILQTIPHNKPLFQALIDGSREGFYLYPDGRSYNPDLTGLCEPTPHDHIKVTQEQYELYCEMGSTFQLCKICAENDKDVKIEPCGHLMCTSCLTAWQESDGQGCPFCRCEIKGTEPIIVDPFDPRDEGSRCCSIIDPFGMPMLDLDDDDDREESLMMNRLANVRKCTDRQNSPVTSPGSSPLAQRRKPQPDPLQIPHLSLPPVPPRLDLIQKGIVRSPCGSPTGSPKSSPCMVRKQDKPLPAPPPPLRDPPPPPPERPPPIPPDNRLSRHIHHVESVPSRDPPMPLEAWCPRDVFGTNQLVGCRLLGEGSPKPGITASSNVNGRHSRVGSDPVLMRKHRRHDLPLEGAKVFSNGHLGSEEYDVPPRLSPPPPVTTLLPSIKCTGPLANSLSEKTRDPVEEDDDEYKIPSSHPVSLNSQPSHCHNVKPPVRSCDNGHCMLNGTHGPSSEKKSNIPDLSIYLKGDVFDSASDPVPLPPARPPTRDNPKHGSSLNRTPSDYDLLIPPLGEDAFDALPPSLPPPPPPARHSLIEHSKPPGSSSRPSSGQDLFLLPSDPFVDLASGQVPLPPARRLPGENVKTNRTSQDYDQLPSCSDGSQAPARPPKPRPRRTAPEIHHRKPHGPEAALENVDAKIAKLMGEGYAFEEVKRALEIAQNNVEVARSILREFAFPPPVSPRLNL

[4] = Induction of anti-CD3/CD28 antibodies-stimulated human T cell activation at 0.3 uM assessed fold increase in CD25 expression measured by ELISA assay; assay type: functional, T cell line
[5] = Induction of anti-CD3/CD28 antibodies-stimulated human T cell activation at 1 uM assessed fold increase in IL-2 secretion measured by ELISA assay; assay type: functional, T cell line
[6] = Induction of anti-CD3 antibodies-stimulated human T cell activation at 1 uM assessed fold increase in IL-2 secretion measured by ELISA assay; assay type: functional, T cell line; further: reference of the scale not given here
[7] = Induction of anti-CD3/CD28 antibodies-stimulated human T cell activation at 0.3 uM assessed fold increase in IL-2 secretion measured by ELISA assay; assay type: functional, T cell line

For `Cn1cnnc1CC1(c2cccc(N3Cc4c(cc(CN5CC[C@H](F)C5)nc4C4CC4)C3=O)c2)COC1`, the “fold change (FC)” value [1] was 1.01, the “fold change (FC)” value [2] was 0.801 and the IC50 [3] was < 0.1 µM. For the same molecule, the “fold change (FC)” value [4] was 1.01, the “fold change (FC)” value [5] was 5 and the “fold change (FC)” value [6] was 0.051. For the same molecule, the “fold change (FC)” value [7] was 2.51.
In the case of `Cn1cnnc1CC1(c2cccc(N3Cc4c(cc(CN5CCC6CC6C5)cc4C(F)(F)F)C3=O)c2)COC1` (centres undefined), the “fold change (FC)” value [1] is reported as 1.31, the “fold change (FC)” value [2] is reported as “>=1.001” and the IC50 [3] is reported as < 0.1 µM. The “fold change (FC)” value [4] was 1.31, the “fold change (FC)” value [5] was “>=7.5” and the “fold change (FC)” value [6] was “>=0.201”. For the same molecule, the “fold change (FC)” value [7] was “>=7.5”.
With `CC(c1cc(C(=O)Nc2cccc(C3(Cc4nncn4C)COC3)c2)nc(C2CC2)n1)N1CCCC1` (centres undefined) the “fold change (FC)” value [1] was 1.31, the “fold change (FC)” value [2] was “>=1.001” and the IC50 [3] was < 0.1 µM. For the same molecule, the “fold change (FC)” value [4] was 1.31, the “fold change (FC)” value [5] was “>=7.5” and the “fold change (FC)” value [6] was “>=0.201”. For the same molecule, the “fold change (FC)” value [7] was “>=7.5”.
With `CN1CC[C@@H](O)[C@H](Cc2cc3c(c(C(F)(F)F)c2)CN(c2cccc(C4(Cc5nncn5C)COC4)c2)C3=O)C1` (relative stereo) the “fold change (FC)” value [1] was 1.01, the “fold change (FC)” value [2] was 0.801 and the IC50 [3] was < 0.1 µM. The “fold change (FC)” value [4] was 1.01, the “fold change (FC)” value [5] was 2.51 and the “fold change (FC)” value [6] was 0.101. The “fold change (FC)” value [7] was 1.01.
With `Cc1cc(C(=O)Nc2cccc(C3([C@H](F)c4nncn4C)COC3)c2)nc(C2CC2)n1` the “fold change (FC)” value [1] was 1.01, the “fold change (FC)” value [2] was “>=1.001” and the IC50 [3] was < 0.1 µM. For the same molecule, the “fold change (FC)” value [4] was 1.01, the “fold change (FC)” value [5] was 5 and the “fold change (FC)” value [6] was 0.151. For the same molecule, the “fold change (FC)” value [7] was 2.51.
With `CC(c1cc2c(c(C3CC3)n1)CN(c1cccc(C3(Cc4nncn4C)COC3)c1)C2=O)N1CCC2(CC2)C1` (centres undefined) the “fold change (FC)” value [1] was 1.01, the “fold change (FC)” value [2] was 0.801 and the IC50 [3] was < 0.1 µM. For the same molecule, the “fold change (FC)” value [4] was 1.01, the “fold change (FC)” value [5] was 5 and the “fold change (FC)” value [6] was 0.051. The “fold change (FC)” value [7] was 2.51.
In the case of `CCOC1CCCN(Cc2cc3c(c(C(F)(F)F)c2)CN(c2cccc(C4(Cc5nncn5C)COC4)c2)C3=O)C1` (centres undefined), the “fold change (FC)” value [1] is reported as 1.51, the “fold change (FC)” value [2] is reported as “>=1.001” and the IC50 [3] is reported as < 0.1 µM. For the same molecule, the “fold change (FC)” value [4] was 1.51, the “fold change (FC)” value [5] was “>=7.5” and the “fold change (FC)” value [6] was “>=0.201”. For the same molecule, the “fold change (FC)” value [7] was “>=7.5”.
For `Cn1cnnc1CC1(c2cccc(N3Cc4c(cc(CN5CCC(C)(F)C5)cc4C(F)(F)F)C3=O)c2)COC1` (centres undefined), the “fold change (FC)” value [1] was 1.31, the “fold change (FC)” value [2] was “>=1.001” and the IC50 [3] was < 0.1 µM. The “fold change (FC)” value [4] was 1.31, the “fold change (FC)” value [5] was “>=7.5” and the “fold change (FC)” value [6] was “>=0.201”. For the same molecule, the “fold change (FC)” value [7] was “>=7.5”.
With `Cn1cnnc1CC1(c2cccc(N3Cc4c(cc(CN5CCC(C(F)F)CC5)cc4C(F)(F)F)C3=O)c2)COC1` the “fold change (FC)” value [1] was 1.31, the “fold change (FC)” value [2] was “>=1.001” and the IC50 [3] was < 0.1 µM. For the same molecule, the “fold change (FC)” value [4] was 1.31, the “fold change (FC)” value [5] was “>=7.5” and the “fold change (FC)” value [6] was 0.151. The “fold change (FC)” value [7] was 5.
For `Cn1cnnc1CC1(c2cccc(N3Cc4c(cc(CN5CC[C@H](CO)C(F)(F)C5)cc4C(F)(F)F)C3=O)c2)COC1`, the “fold change (FC)” value [1] was 1.31, the “fold change (FC)” value [2] was “>=1.001” and the IC50 [3] was < 0.1 µM. The “fold change (FC)” value [4] was 1.31, the “fold change (FC)” value [5] was “>=7.5” and the “fold change (FC)” value [6] was 0.151. For the same molecule, the “fold change (FC)” value [7] was “>=7.5”.
In the case of `Cn1cnnc1CC1(c2cccc(N3Cc4c(cc(CN5CCC(C)(C#N)CC5)cc4C(F)(F)F)C3=O)c2)COC1`, the “fold change (FC)” value [1] is reported as 1.31, the “fold change (FC)” value [2] is reported as “>=1.001” and the IC50 [3] is reported as < 0.1 µM. The “fold change (FC)” value [4] was 1.31, the “fold change (FC)” value [5] was “>=7.5” and the “fold change (FC)” value [6] was 0.151. For the same molecule, the “fold change (FC)” value [7] was “>=7.5”.
For `Cn1cnnc1[C@@H](F)C1(c2cccc(N3Cc4c(cc(CN5CCCCC5)cc4C(F)(F)F)C3=O)c2)COC1`, the “fold change (FC)” value [1] was 1.51, the “fold change (FC)” value [2] was “>=1.001” and the IC50 [3] was < 0.1 µM. The “fold change (FC)” value [4] was 1.31, the “fold change (FC)” value [5] was “>=7.5” and the “fold change (FC)” value [6] was 0.101. For the same molecule, the “fold change (FC)” value [7] was “>=7.5”.
For `Cn1cnnc1CC1(c2cccc(NC(=O)c3cc(CN4CC[C@H](O)C4)nc(C4CC4)n3)c2)COC1`, the “fold change (FC)” value [1] was 1.01, the “fold change (FC)” value [2] was 0.601 and the IC50 [3] was < 0.1 µM. The “fold change (FC)” value [4] was 1.01, the “fold change (FC)” value [5] was 2.51 and the “fold change (FC)” value [6] was 0.051. For the same molecule, the “fold change (FC)” value [7] was 1.01.
For `Cn1cnnc1CC1(c2cccc(N3Cc4c(ccnc4C(F)(F)F)C3=O)c2)COC1`, the “fold change (FC)” value [1] was 1.01, the “fold change (FC)” value [2] was 0.601 and the IC50 [3] was < 0.1 µM. For the same molecule, the “fold change (FC)” value [4] was 1.01, the “fold change (FC)” value [5] was 1.01 and the “fold change (FC)” value [6] was “<=0.05”. The “fold change (FC)” value [7] was 1.01.
With `CCN1CCN(Cc2cc3c(c(C(F)(F)F)c2)CN(c2cccc(C4(Cc5nncn5C)COC4)c2)C3=O)CC1` the “fold change (FC)” value [1] was 1.31, the “fold change (FC)” value [2] was “>=1.001” and the IC50 [3] was < 0.1 µM. For the same molecule, the “fold change (FC)” value [4] was 1.31, the “fold change (FC)” value [5] was “>=7.5” and the “fold change (FC)” value [6] was “>=0.201”. The “fold change (FC)” value [7] was 5.
For `C[C@H](c1cc2c(c(C(F)(F)F)c1)CN(c1cccc(C3([C@H](F)c4nncn4C)COC3)c1)C2=O)N1CCC2(CC2)C1` (single isomer, unassigned), the “fold change (FC)” value [1] was “>=1.76”, the “fold change (FC)” value [2] was “>=1.001” and the IC50 [3] was < 0.1 µM. For the same molecule, the “fold change (FC)” value [4] was “>=1.76”, the “fold change (FC)” value [5] was “>=7.5” and the “fold change (FC)” value [6] was “>=0.201”. For the same molecule, the “fold change (FC)” value [7] was “>=7.5”.
With `Cc1conc1CC1(c2cccc(NC(=O)c3cc(CN4CCC5(CC5)C4)cc(C4CC4)n3)c2)COC1` the “fold change (FC)” value [1] was 1.31, the “fold change (FC)” value [2] was “>=1.001” and the IC50 [3] was < 0.1 µM. The “fold change (FC)” value [4] was 1.31, the “fold change (FC)” value [5] was “>=7.5” and the “fold change (FC)” value [6] was “>=0.201”. The “fold change (FC)” value [7] was “>=7.5”.
With `CC(c1cc(C(=O)Nc2cccc(C3(Cc4nncn4C)COC3)c2)nc(C2CC2)n1)N1CCC2(CC2)C1` (single isomer, unassigned; 592a) the “fold change (FC)” value [1] was 1.01, the “fold change (FC)” value [2] was “>=1.001” and the IC50 [3] was < 0.1 µM. For the same molecule, the “fold change (FC)” value [4] was 1.01, the “fold change (FC)” value [5] was “>=7.5” and the “fold change (FC)” value [6] was “>=0.201”. For the same molecule, the “fold change (FC)” value [7] was 5.
With `CN1CC2CCC1CN2c1cc2c(c(C(F)(F)F)c1)CN(c1cccc([C@@](C)(F)C(F)(F)c3nncn3C)c1)C2=O` (some centres undefined) the “fold change (FC)” value [1] was 1.31, the “fold change (FC)” value [2] was “>=1.001” and the IC50 [3] was < 0.1 µM. For the same molecule, the “fold change (FC)” value [4] was 1.31, the “fold change (FC)” value [5] was 2.51 and the “fold change (FC)” value [6] was 0.101. The “fold change (FC)” value [7] was 1.01.
In the case of `C[C@@H](c1cc2c(c(C(F)(F)F)c1)CN(c1cccc(C3(Cc4nncn4C)COC3)c1)C2=O)N1CC(F)C1`, the “fold change (FC)” value [1] is reported as 1.51, the “fold change (FC)” value [2] is reported as “>=1.001” and the IC50 [3] is reported as < 0.1 µM. The “fold change (FC)” value [4] was 1.31, the “fold change (FC)” value [5] was “>=7.5” and the “fold change (FC)” value [6] was 0.151. The “fold change (FC)” value [7] was 5.
For `Cn1cnnc1CC1(c2cccc(N3Cc4c(cc(N5CC(C(F)F)C5)cc4C(F)(F)F)C3=O)c2)COC1`, the “fold change (FC)” value [1] was 1.01, the “fold change (FC)” value [2] was 0.801 and the IC50 [3] was < 0.1 µM. For the same molecule, the “fold change (FC)” value [4] was 1.01, the “fold change (FC)” value [5] was 5 and the “fold change (FC)” value [6] was 0.051. For the same molecule, the “fold change (FC)” value [7] was 2.51.
With `Cn1cnnc1CC1(c2cccc(N3Cc4c(cc(CN5CCC6(CC6)C(F)(F)C5)cc4C(F)(F)F)C3=O)c2)COC1` the “fold change (FC)” value [1] was 1.31, the “fold change (FC)” value [2] was “>=1.001” and the IC50 [3] was < 0.1 µM. For the same molecule, the “fold change (FC)” value [4] was 1.31, the “fold change (FC)” value [5] was “>=7.5” and the “fold change (FC)” value [6] was “>=0.201”. The “fold change (FC)” value [7] was 2.51.
